Where a name gives a salt, the structure may show the parent alone. Read-outs that look alike come from different tables or passages of the source.
What was measured:
[1] = cited from earlier work
[2] = In vitro dissolution/release profile, USP <711> Apparatus 1 (baskets); format: physicochemical
Procedure: For the purposes of in vitro testing, a release or dissolution profile may be determined at pH 1.2 using a 0.06 N hydrochloric acid solution, at pH 4.5 using a phosphate buffer using USP <711> test conditions, and at pH 5.0 using a buffer using USP <711> test conditions. Such test conditions can be carried out according to USP <711> dissolution conditions using Apparatus 1 (baskets) in 900 mL of media with stirring at 50 RPM. The in vitro release of the pellets was tested using USP XXIV 2000—Apparatus 1 (baskets). See, e.g., Riaz Uddin, Nadia Saffoon, and Kumar Bishwajit Sutradhar, “Dissolution and Dissolution Apparatus: A Review,” Int. J. Cur. Biomed. Phar. Res., 2011, Vol. 1(4), pgs. 201-207. The acid environment dissolution profile of pellet A and B's formulation can be seen in FIG. 1. The dissolution profile of pellet A and B formulations at elevated pH can be seen in FIG. 2.

[3] = Physicochemical properties of doxycycline forms
[4] = Population pharmacokinetic model of doxycycline plasma concentrations, pooled phase 1 data (Example 8); format: in vivo, human
Procedure: Pharmacokinetic data were available from eight phase 1 clinical trials conducted by Mayne Pharma International. These studies assessed doxycycline plasma concentrations following oral administration of either a 100 mg conventional release doxycycline hyclate capsule, a 75/100/150 or 200 mg Doryx® Delayed-Release tablet or a 120 mg Doryx MPC® Delayed-Release tablet in healthy subjects. For the remainder of the Specification's Example 8, conventional release doxycycline hyclate capsules will be referred to as Doryx capsules, the Doryx® Delayed-Release tablets will be referred to as Doryx tablets, and Doryx MPC® Delayed-Release tablets (formulation code MP336) will be referred to as Doryx MPC.
The available phase 1 clinical trials included six single dose two treatment period studies assessing the influence of formulation or the fed/fasted state on doxycycline concentrations. Two trials were multi-dose studies; with one a single treatment period study and the other a two treatment period study assessing doxycycline plasma concentrations following Doryx capsule or Doryx tablet administration. All studies were conducted in the United States. […] The design and dosing schedules are summarized in […].3. The available studies were assigned a local identifier during model development (10, 20, 30, 40, 50, 60, 70, and 80), as indicated in […].3, and will be referred to by these numbers for the remainder of the Specification.
Studies 10, 20, 30, 50, 60 and 80 were single-dose studies and plasma samples were acquired at nominal times approximate to 0, 0.25, 0.5, 1, 1.5, 2, 2.5, 3, 3.5, 4, 6, 8, 10, 12, 16, 24, 36, 48, 72 and 96 hours after the dose on day 1 of that period. Study 40 was a single treatment period multi-dose study, where participants were dosed 7 times at 24 hour intervals and plasma samples were collected at nominal times of 0, 0.25, 0.5, 1, 1.5, 2, 2.5, 3, 4, 6, 8, 10, 12, 16, 24, 144, 144.25, 144.5, 145, 145.5, 146, 146.5, 147, 148, 150, 152, 156, 160, 168, 180, 192, 216 and 240 hours after the dose on day 1. Study 70 was a two treatment period multi-dose study, where doses were given at 0, 72, 96, 120, 144 and 168 hours after the start of treatment, and plasma samples were collected at nominal times of 0, 0.25, 0.5, 1, 1.5, 2, 2.5, 3, 4, 6, 8, 10, 12, 16, 24, 36, 48, 72, 96, 120, 144, 168, 168.25, 168.5, 169, 169.5, 170, 170.5, 171, 172, 174, 176, 180, 184, 192, 204, 216 and 240 hours after the dose on day 1. Deviations between nominal sampling times and actual sample times were recorded, and the actual times were used during model development. Covariates describing fed status, formulation, sex, age, race, weight, body mass index (BMI), smoking status and study number were available for each individual.
Doxycycline plasma concentrations were measured using validated high performance liquid chromatographic methods, with the lower limits of quantification (LLOQ) of the assays indicated in […].3. All subjects with evaluable pharmacokinetic data were included in the analysis. All studies were conducted according to the International Conference of Harmonisation (ICH) guidelines for good clinical practice, the Declaration of Helsinki on the ethical conduct of medical research, and applicable regulatory requirements. Each subject signed and dated a written informed consent before study participation.
The base model was developed in a step-wise manner. Pharmacokinetic models were coded using the ADVAN5 subroutines of NONMEM. Linear kinetic models with 1, 2 and 3 compartments were evaluated, with absorption models including simple first-order absorption and “transit compartment” models with up to 5 absorption transit compartments assessed. The parameter KTR (transit absorption rate) was used to describe the first-order movement through these absorption compartments. The First Order Conditional Estimation (FOCE) method was used to fit models. […]

[5] = cited from earlier work; remark: listed apart in the source
[6] = test system: Plasmodium falciparum; conditions: cited from earlier work

Compound: CC1c2cccc(O)c2C(=O)C2=C(O)[C@]3(O)C(=O)C(C(N)=O)=C(O)[C@@H](N(C)C)[C@@H]3[C@@H](O)[C@@H]21 (stereo partly drawn) [Doxycycline hyclate, [4S(4aR,5S,5aR,6R,12aS)]-4-(dimethylamino)-1,4,4a,5,5a,6,11,12a-octahydro-3,5,10,12,12a-pentahydroxy-6-methyl-1,11-deoxonapthtacene-2-carboxamide monohydrochloride, compound with ethyl alcohol (2:1), monohydrate]
- solubility [1]: soluble in water and in solutions of alkali hydroxides and carbonates

Compound: C[C@H]1c2cccc(O)c2C(=O)C2=C(O)[C@]3(O)C(=O)C(C(N)=O)=C(O)[C@@H](N(C)C)[C@@H]3[C@@H](O)[C@@H]21 [doxycycline monohydrate salt]
- release rates overall ([2]; FIG. 5): low release rates overall
- release ([2]; acidic conditions (FIG. 5)): releases readily
- solubility ([3]; lower pH values (FIG. 5)): very soluble
- solubility ([3]; pH above 3 (FIG. 5)): not very soluble

Compound: C[C@H]1c2cccc(O)c2C(=O)C2=C(O)[C@]3(O)C(=O)C(C(N)=O)=C(O)[C@@H](N(C)C)[C@@H]3[C@@H](O)[C@@H]21 [doxycycline, (4S,4aR,5S,5aR,6R,12aS)-4-(dimethylamino)-3,5,10,12,12a-pentahydroxy-6-methyl-1,11-dioxo-1,4,4a,5,5a,6,11,12a-octahydrotetracene-2-carboxamide]
- CL, Clearance ([4]; final model parameter estimate): 4.63 L/h/70 kg FFM
- CLP1, Intercompartmental clearance ([4]; final model parameter estimate): 11.3 L/h/70 kg FFM
- KTR, Transit compartment rate constant ([4]; final model parameter estimate): 2 h⁻¹
- V, Central distribution volume ([4]; final model parameter estimate): 55.2 L/70 kg FFM
- VP1, Peripheral distribution volume ([4]; final model parameter estimate): 49.8 L/70 kg FFM
- FTLAG2, lag on KTR (absorption) for the fed status ([4]; final model, formulation non-specific): 0.203 h
- Fed-state decrease in relative bioavailability ([4]; human, plasma, oral, final model parameter estimate, read-out: COVFEDF, Effect of food on relative bioavailability): 10.5%
- female sex increase in clearance ([4]; in vivo): 14.4%
- fed status decrease in relative bioavailability (F) ([4]; irrespective of formulation): 10.5%
- peak serum level ([5]; 200 mg dose, at 2 hours, normal adult volunteers): 2.6 µg/mL
- serum level ([5]; 200 mg dose, at 24 hours): 1450 ng/mL
- absorption after oral administration ([5]; in vivo, po): virtually completely absorbed
- half-life ([5]; in vivo): approximately 18 hours
- excretion by the kidney ([5]; normal function (creatinine clearance about 75 mL/min)): about 40 %/72 hours
- excretion by the kidney ([5]; severe renal insufficiency (creatinine clearance below 10 mL/min)): 1-5 %/72 hours
- lipid solubility [1]: high degree of lipid solubility
- activity against asexual erythrocytic forms [6]: active
- activity against gametocytes [6]: not against the gametocytes

Reference: patent publication US20170182070A1, “Controlled Release Doxycycline” (Mayne Pharma International Pty Ltd., priority 2014, published 2017)
